Data on eleven compounds can be found in patent US10426758B2, “Sibiriline derivatives for use for preventing and/or treating disorders associated with cellular necroptosis” (Institut National de la Sante et de la Recherche Medicale …, priority 2015, dated 2019).

pEC50, pIC50: −log10 of the molar value.

Data set [1] relates to L929sAhFas. Put plainly: Necroptosis induced by FasL + zVAD-fmk in L929sAhFas, intracellular ATP level. Conditions: Mus musculus. In kind it is cell-based. The method, then: (§1) Besides, the IC50 of compound 3, compound 6 and necrostatin-1 (Nec-1) were determined in mouse or human cellular models of necroptosis induced by FasL+zVAD-fmk (a pan-caspase inhibitor) or TNF, and by using two cytotoxic assays (MTS Cell Proliferation assay or intracellular ATP level). As shown in the table below, compound 3 and compound 6 inhibit TNF-α or FasL-induced necroptosis with IC50 almost similar to those obtained with Nec-1.

For data set [2], the system named is L929sAhFas. Put plainly: Necroptosis induced by FasL + zVAD-fmk in L929sAhFas, MTS Cell Proliferation assay. In kind it is cell-based. Conditions: Mus musculus. The method, then:
as §1
(In general: Tetrazolium assays rely on reduction of a dye to a coloured formazan, in cell work by metabolically active cells.)

The subject of data set [3] is Jurkat Fadd−/−. Briefly: Necroptosis induced by TNF in Jurkat Fadd−/−, intracellular ATP level. In kind it is cell-based. The following applies: Homo sapiens. The protocol: as §1
For data set [4], the system named is Jurkat Fadd−/−. Put plainly: Necroptosis induced by TNF in Jurkat Fadd−/−, MTS Cell Proliferation assay. Format: cell-based. Conditions: Homo sapiens. The method, then: as §1
Data set [5] deals with cytochrome P450 CYP1A enzymes in HepG2 cells. Briefly: Ethoxyresorufin O-deethylase (EROD) activity in HepG2 cells. In kind it is in vitro ADME, human. Conditions: 10 μM, 24 hours. The method, then: EROD activity corresponds to the O-deethylation of ethoxyresorufin and is mainly supported by cytochrome P450 CYP1A enzymes in HepG2 cells. Induction of CYP1A is mediated through the binding of xenobiotics to a cytosolic aryl hydrocarbon receptor AhR.
Human liver cancer cell lines HepG2 were treated with 10 μM of Sib, Nec-1 or Nec-1s for 24 hours. After treatment, HepG2 cells were incubated in PBS containing 5 mM ethoxyresorufin and kinetic reading was performed at 37° C. with spectrofluorometer (SpectraMax Gemini SX) over a 15 min period.

The subject of data set [6] is murine model of acute hepatitis (concanavalin A-induced hepatitis). Put plainly: Concanavalin A-induced acute hepatitis in mice. Conditions: Nec-1s 6.25 mg/kg intraperitoneal 1 hour before 12 mg/kg Con A for 10 h. Format: in vivo, C57Bl/6 WT mice. The method, then:
We use a murine model of acute hepatitis (concanavalin A-induced hepatitis) that depends on necroptosis induction (Jouan-Lanhouet et al. Semin. Cell. Dev. Biol. 2014, 35, 2-13). Sib is diluted in 50% PBS/50% DMSO.
C57Bl/6 WT mice were pre-treated or not with 3, 6 or 9 mg/kg Sib or 6.25 mg/kg Nec-1s injected by intraperitoneal route 1 hour before treatment or not with 12 mg/kg Con A for 10 h (intravenous route) (50% PBS/50% DMSO, n=5; 50% PBS/50% DMSO+Con A, n=5; 3 mg/kg Sib+Con A, n=5; 6 mg/kg Sib+Con A, n=5; 9 mg/kg Sib+Con A, n=5; 6.25 mg/kg Nec-1s+Con A, n=5).

Data set [7] deals with Jurkat FADD-deficient I 2.1 cell line. Briefly: Cell-based screening: TNF-α-induced necroptosis in Jurkat FADD-deficient cells, MTS viability assay. Details: species or system human. Conditions: for pEC50: Homo sapiens, Jurkat, necroptosis induced by 10 ng/ml TNF-α, 24 hours, MTS viability; for inhibition of necroptosis induced by TNF-α (figure legend): human T lymphocyte, Jurkat FADD deficient cell line. From the text: TNF-α can induce necroptosis in Jurkat cells (human T lymphocytes) when FADD is deleted. This model was used to screen various libraries of chemical compounds for characterization of new inhibitors of cellular necroptosis. Details on this cell-based assay can be found in (Miao and Degterev, Methods Mol. Biol. 2009, 559, 79-93). The Jurkat FADD-deficient I 2.1 cell line used was purchased from ATCC and was maintained in RPMI 1640 medium (Gibco) containing Glutamax and 15% fetal calf serum (Life Technology). Necroptosis was induced by addition of 10 ng/ml of human recombinant TNF-α (Life Technology). Necrostatin-1 (Nec-1, Enzo Life Sciences) was used as model necroptosis inhibitor. Cells were maintained in 75 cm^2 flask and passed every 2 or 3 days. Chemical collections analysed were formatted in 96-well plates with 80 molecules per plates at 10 mM in 100% DMSO. For each collection plate, 2 cell plates were seeded (one necroptosis-induced with TNF-α and the other without TNF-α). Cells were seeded at 20000 cells/well, in 40 μl of medium, in a 96-well clear, flat bottom plate (CytoOne, Starlab) before treatment. Then, 40 μl of medium with or without TNF-α at 25 ng/ml were added to all wells in the corresponding plate. Immediately after TNF-α addition, 20 μl of diluted compound at 50 μM were added to the plates. Final concentration of each chemical compound was 10 μM at 0.1% DMSO. Four positives (Nec-1 at 10 μM final) and four negative (DMSO) controls were used in each plate to validate the assay. Cells were incubated at 37° C., 5% CO2 for 24 hours before performing MTS viability assay, described hereafter. Compounds were diluted before to treat cells. Liquid handling was performed using the Nimbus Microlab liquid handler (Hamilton Robotics) under microbiological safety workbench. The 10 mM compounds were diluted at 50 μM directly in cell medium.

In data set [8] the target is T1, Human RIPK1 full length GST-tagged (Homo sapiens, UniProt Q13546).
T1 construct: Human RIPK1 full length GST-tagged; made in house; host or cells: Sf9 insect cells (Bac-to-Bac baculovirus system)
T1 sequence (Q13546 1-671): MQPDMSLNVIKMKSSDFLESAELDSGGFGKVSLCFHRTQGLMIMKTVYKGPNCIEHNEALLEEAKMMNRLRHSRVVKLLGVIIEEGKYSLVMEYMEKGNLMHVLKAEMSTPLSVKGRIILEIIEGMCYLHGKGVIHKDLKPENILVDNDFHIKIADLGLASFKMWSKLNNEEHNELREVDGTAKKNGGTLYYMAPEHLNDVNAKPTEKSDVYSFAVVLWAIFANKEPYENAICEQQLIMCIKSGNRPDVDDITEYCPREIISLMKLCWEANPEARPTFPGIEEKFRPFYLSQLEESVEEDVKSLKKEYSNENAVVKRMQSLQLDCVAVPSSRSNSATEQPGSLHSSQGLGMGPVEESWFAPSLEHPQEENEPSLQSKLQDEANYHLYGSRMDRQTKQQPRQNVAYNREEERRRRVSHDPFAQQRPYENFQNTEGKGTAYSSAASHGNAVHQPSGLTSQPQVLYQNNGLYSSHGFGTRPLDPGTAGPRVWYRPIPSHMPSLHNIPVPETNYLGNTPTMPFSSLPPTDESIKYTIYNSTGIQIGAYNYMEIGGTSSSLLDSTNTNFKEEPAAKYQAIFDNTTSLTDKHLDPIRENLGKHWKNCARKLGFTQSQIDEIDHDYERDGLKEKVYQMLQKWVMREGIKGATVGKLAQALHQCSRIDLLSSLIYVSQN
Briefly: RIPK1 autophosphorylation assay. In kind it is biochemical. Conditions: radioactively labeled RIPK1, [γ-32P] ATP, 30 minutes at 30° C. The protocol: Human RIPK1 full length GST-tagged was baculovirally expressed in Sf9 cells according to manufacturer's instructions (Bac-to-Bac expression system, Invitrogen) and purified using gluthation-sepharose beads (GE Healthcare). The elution was made in 50 mM Tris-HCl, pH 8.0 buffer supplemented with 30 mM reduced gluthatione (Sigma). The protocol used to detect the enzymatic activity is adapted from Miao and Degterev (Methods Mol. Biol. 2009, 559, 79-93). Kinase reaction was initiated mixing 5 μl of eluted RIPK1, 5 μl of 3× kinase reaction buffer (5 mM MOPS pH 7.2, 2.5 mM β-glycerophosphate, 4 mM MgCl2, 2.5 mM MnCl2, 1 mM EGTA, 0.4 mM EDTA, 50 μg/ml BSA, 0.05 mM DTT), 2 μl H2O and 3 μl of the tested molecule. The mixture was kept on ice for 10 minutes. During the incubation, the ATP solution was prepared by mixing 5 μl of 3× kinase reaction buffer, 4 μl H2O, 6 μl cold ATP at 150 μM and 2 μCi of [γ-^32P] ATP. Add the ATP solution and the tested inhibitor to the kinase and incubate for 30 minutes at 30° C. To stop the enzymatic reaction, 5 μl of loading buffer were added and solution was heated for 3 minutes at 95° C. 25 μl of each reaction were loaded per well in pre-cast NuPage 12% Bis-Tris gel (Life Technology). Autophosphorylated RIPK1 band was visualized on radiographic film after 6 h exposition at −80° C.

Broadly, the pIC50 is the negative decadic logarithm of the IC50, by convention in mol/L. On to `CN1C(=O)C(Cc2c[nH]c3ccccc23)NC1=S` (centres unmarked) [Nec-1, necrostatin-1, reference compound], for which the negative-log IC50 (pIC50) is 5.00 in data set [1], 5.00 in data set [2], 5.89 in data set [3] and 5.89 in data set [4].

With `CN1C(=O)NC(Cc2c[nH]c3c(Cl)cccc23)C1=O` (centres unmarked) [Nec-1s, reference compound], the “induction of EROD activity” value in data set [5] is recorded as “do not induce EROD activity”. Besides, the “AST and ALT levels and protection from Con A-induced hepatitis” value in data set [6] is “has a tendency to decrease AST and ALT levels and to protect mice from Con A-induced hepatitis”.

In general, pEC50 refers to the EC50 on a negative log10 scale, so that one unit is a factor of ten. Lower therefore signals a high EC50. Consider `COc1ccc(-c2cc3cccnc3[nH]2)cc1` [compound 1, 2-(4-methoxyphenyl)-1H-pyrrolo[2,3-b]pyridine], for which, in data set [7], the negative logarithm of the EC50 (pEC50) was 6.40 and the “inhibition of necroptosis induced by TNF-α (figure legend)” value (“inhibition of necroptosis induced” below) is given as “dose-dependent inhibition”.

In the case of `CCOc1ccc(-c2cc3cccnc3[nH]2)cc1` [compound 3, 2-(4-ethoxyphenyl)-1H-pyrrolo[2,3-b]pyridine], in data set [7], the pEC50 was 6.15. In addition, in data set [7], the “inhibition of necroptosis induced” value is recorded as “dose-dependent inhibition”. In addition, the pIC50 was 5.60 in data set [1], 5.89 in data set [3] and 5.57 in data set [4]. Also, the “inhibition of RIPK1 autophosphorylation” value in data set [8] is “dose-dependent inhibition”.

Regarding `CC(C)Oc1ccc(-c2cc3cccnc3[nH]2)cc1` [compound 4, 2-(4-isopropoxyphenyl)-1H-pyrrolo[2,3-b)pyridine], in data set [7], the pEC50 is 6.05 and the “inhibition of necroptosis induced” value is reported as “dose-dependent inhibition”.

In data set [7], `c1cnc2[nH]c(-c3ccc4c(c3)OCCO4)cc2c1` [compound 5, 2-(1,4-benzodioxanyl)-1H-pyrrolo[2,3-b]pyridine] had a pEC50 of 5.85.

In data set [7], `c1cnc2[nH]c(-c3ccc4c(c3)OCO4)cc2c1` [compound 6] showed a pEC50 of 5.74. Also, the pIC50 in data set [2] was 5.00; in data set [3], 5.40; in data set [4], 5.15.

`CCOc1ccc(-c2cc3c(Cl)ccnc3[nH]2)cc1` [compound 7, 4-chloro-2-(4-ethoxyphenyl)-1H-pyrrolo[2,3-b]pyridine]: in data set [7], the pEC50 was 5.70 and the “inhibition of necroptosis induced” value is recorded as “dose-dependent inhibition”. Moreover, in data set [8], the “inhibition of RIPK1 autophosphorylation” value is listed as “dose-dependent inhibition”.

On to `CCOc1ccc(-c2cc3cc(-c4ccc(OC)c(OC)c4)cnc3[nH]2)cc1` [compound 8, 5-(3,4-dimethoxyphenyl)-2-(4-ethoxyphenyl)-1H-pyrrolo[2,3-b]pyridine], for which, in data set [7], the pEC50 is 5.82 and the “inhibition of necroptosis induced” value is recorded as “dose-dependent inhibition”.

In the case of `c1cnc2[nH]c(-c3ccc(OC4CCCC4)cc3)cc2c1` [compound 9, 2-(4-(cyclopentyloxy)phenyl)-1H-pyrrolo[2,3-b]pyridine], in data set [7], the pEC50 was 5.52 and the “inhibition of necroptosis induced” value is recorded as “dose-dependent inhibition”.

For the compound `CCOc1ccc(-c2cc3cc(Br)cnc3[nH]2)cc1` [compound 10, 5-bromo-2-(4-ethoxyphenyl)-1H-pyrrolo[2,3-b]pyridine], in data set [7], the “inhibition of necroptosis induced” value is on record as “slight dose-dependent inhibition”.
